# Read-outs that look alike come from different tables or passages of the source.
# Assays:
# [1] = MTT cell viability / cytotoxicity on normal fibroblasts; type: cell-based, mouse; conditions: mouse
# Description: (§1) Merck chemicals were utilized.
# (§2) Untreated cells were used as control, considered 100% viable cells.
# [2] = test system: HEp-2 epithelial tumor cells; assay: MTT cell viability / anti-tumor activity; conditions: Homo sapiens, read-out: Cell viability on Hep2 cells (%)
# Description: The cytotoxicity of the halogenoaminopyrazole derivatives 4a–f and 5a–e was tested on L929 mouse fibroblast cells, and their anti-tumor activity was evaluated on the human carcinoma epithelial cell line HEp-2. The experiments were performed in a concentration range of 3.1–50 μg/mL.
# The MTT test was used, 3-(4,5-dimethylthiazol-2-yl)-2,5-diphenyl tetrazolium bromide), which is reduced to insoluble purple-blue formazan crystals precipitated by living cells. Cell viability assessed using the MTT assay reflects the activity of mitochondrial enzymes in treated cells compared to the control culture of untreated cells.
# To assess the biocompatibility of the substances, a stable mouse fibroblast cell line, NCTC (clone 929), was grown in minimal essential medium (MEM) with 10% fetal bovine serum (FBS) and 2 mM L-glutamine, along with 100 U/mL penicillin, 100 µg/mL streptomycin, and 500 µg/mL neomycin. The concentration of the compounds used was 0.06 g/2 mL DMSO.
# In cytotoxicity experiments, compound solutions were utilized at concentrations of 3.1 μg/mL, 6.25 μg/mL, 12.5 μg/mL, 25 μg/mL, and 50 μg/mL. The NCTC cell suspension was placed into 96-well culture plates with a concentration of 4 × 10^4 cells/mL and incubated at 37 °C for 24 h in a 5% CO2 humidified atmosphere. The compounds under study were placed in sets of three at varying concentrations ranging from 3.1 μg/mL to 50 μg/mL in every well, and the plates were then kept under standard conditions for 48 h. Cell viability was determined through the utilization of the MTT assay. Next, the MTT solution was removed, then isopropanol was added to solubilize the formazan crystals. The colored solution was then measured for absorbance at 570 nm using a Berthold Technologies, LB 940 microplate reader (Bad Wildbad, Germany). The outcomes were determined based on Formula (1) while considering that the recorded optical density is directly related to the number of viable cells in the cell culture being examined [35, 36]. % cell viability = (OD sample/OD control) × 100%(1)
# For each tested compound, a graph representing percentage cell viability versus concentrations (in the range 3.1–50 µg/mL) was obtained. Then, the IC50 value was calculated by using ED50 plus V1.0 software.
# [3] = test system: Pseudomonas aeruginosa ATCC27853; assay: MIC by serial microdilution in liquid medium; type: cell-based; conditions: Pseudomonas aeruginosa, ATCC27853; 24 h, 37 °C; read-out: Minimum inhibitory concentration, Pseudomonas aeruginosa ATCC27853
# Description: (§3) The minimum inhibitory concentrations (MIC) were determined by the serial microdilution method in a liquid medium (Tryptone Soy Broth), on 96-well plates. Serial binary dilutions of the compound stock solution (10 mg/mL in DMSO) were carried out in 90 µL of culture medium and 10 µL of 10^6 CFU/mL (Colony Forming Units) microbial suspension. Each test included a positive control (wells with culture medium and microbial suspension) and a negative control for medium sterility. After incubation at 37 °C for 24 h the plates were visually examined, and optical density was measured at 620 nm. […] The MIC value (µg/mL) for the chemical compound was determined by the concentration in the final well without bacterial growth. All experiments were performed in triplicate.
# [4] = test system: Enterococcus faecalis ATCC29212; assay: MIC by serial microdilution in liquid medium; type: cell-based; conditions: Enterococcus faecalis, ATCC29212; 24 h, 37 °C; read-out: Minimum inhibitory concentration, Enterococcus faecalis ATCC29212
# Description: as §3
# [5] = test system: Escherichia coli ATCC25922; assay: MIC by serial microdilution in liquid medium; type: cell-based; conditions: Escherichia coli, ATCC25922; 24 h, 37 °C; read-out: Minimum inhibitory concentration, Escherichia coli ATCC25922
# Description: as §3
# [6] = test system: Staphylococcus aureus ATCC25923; assay: MIC by serial microdilution in liquid medium; type: cell-based; conditions: Staphylococcus aureus, ATCC25923; 24 h, 37 °C; read-out: Minimum inhibitory concentration, Staphylococcus aureus ATCC25923
# Description: as §3
# [7] = test system: Pseudomonas aeruginosa ATCC27853; assay: Antibiofilm assay (crystal violet), MBIC; type: cell-based; conditions: 37 °C
# Description: (§4) Microorganisms were grown in 96-well plates filled with nutrient broth along with test substances, followed by incubation at 37 °C for 24 h. Plates were cleaned and rinsed thrice using SPW solution (sterile physiological water). After that, the attached cells were treated with 110 μL of methanol for 5 min, and then the methanol was removed by turning it upside down. […] Once stained, the solution was removed, and the plates were washed with running tap water. […] The antimicrobial/antibiofilm activity of the compounds was evaluated against two antibiotics, commercial formulations of metronidazole and nitrofurantoin.
# [8] = test system: Enterococcus faecalis ATCC29212; assay: Antibiofilm assay (crystal violet), MBIC; type: cell-based; conditions: Enterococcus faecalis, ATCC29212, 24 h, 37 °C, read-out: Minimum biofilm inhibition concentration (MBIC), Enterococcus faecalis ATCC29212
# Description: as §4
# [9] = test system: Escherichia coli ATCC25922; assay: Antibiofilm assay (crystal violet), MBIC; type: cell-based; conditions: Escherichia coli, ATCC25922, 24 h, 37 °C, read-out: Minimum biofilm inhibition concentration (MBIC), Escherichia coli ATCC25922
# Description: as §4
# [10] = test system: Staphylococcus aureus ATCC25923; assay: Antibiofilm assay (crystal violet), MBIC; type: cell-based; conditions: Staphylococcus aureus, ATCC25923; 24 h, 37 °C; read-out: Minimum biofilm inhibition concentration (MBIC), Staphylococcus aureus ATCC25923
# Description: as §4
# [11] = test system: Pseudomonas aeruginosa ATCC27853; assay: Qualitative evaluation of antimicrobial activity (inhibition zone, spot on agar); type: cell-based; design: key: (+) inhibited bacterial growth; (-) did not inhibit bacterial growth; conditions: 0.06 g/2 mL DMSO, 5 µL spot
# Description: (§5) For testing the antimicrobial/antibiofilm activity, the concentration of the studied compounds was identical to 0.06 g/2 mL DMSO. 0.5 Standard McFarland suspension was used, which was inoculated onto Mueller Hinton agar plates, (Remel, Lenexa, KS, USA), 5 µL of each compound was spotted and incubated overnight at 37 °C. Antimicrobial activity was observed as zones of inhibition formed around the spot.
# [12] = test system: Enterococcus faecalis ATCC29212; assay: as above; type: cell-based; design: key: (+) inhibited bacterial growth; (-) did not inhibit bacterial growth; conditions: 0.06 g/2 mL DMSO, 5 µL spot
# Description: as §5
# [13] = test system: Escherichia coli ATCC25922; assay: as above; type: cell-based; design: key: (+) inhibited bacterial growth; (-) did not inhibit bacterial growth; conditions: 0.06 g/2 mL DMSO, 5 µL spot
# Description: as §5
# [14] = test system: Staphylococcus aureus ATCC25923; assay: as above; type: cell-based; design: key: (+) inhibited bacterial growth; (-) did not inhibit bacterial growth; conditions: 0.06 g/2 mL DMSO, 5 µL spot
# Description: as §5
# [15] = test system: NCTC (clone 929) mouse fibroblast cells; assay: MTT cell viability / cytotoxicity on normal fibroblasts; type: cell-based; conditions: Mus musculus, NCTC clone 929; NCTC normal fibroblasts, MTT, 48 h
# Description: as §1, §2
# [16] = NCTC clone 929 (L929) mouse fibroblast cells
# [17] = read-out: Cell viability on NCTC cells (%)
smiles,measurement,setting,value
"Cc1nn(CNc2ccc(I)cc2)c(C)c1[N+](=O)[O-] [4d, N-[(3,5-dimetyl-4-nitro-1H-pyrazol-1-yl)-methyl]-4-iodoaniline]",melting point,,91 to 92 °C
same,"viability at 24 h, 3.1 µg/mL",[1]; [16],99.9 ± 2.31%
same,"viability at 48 h, 3.1 µg/mL",[1]; [16],95.69 ± 0.8%
same,"viability at 24 h, 6.25 µg/mL",[1]; [16],101 ± 2.24%
same,"viability at 48 h, 6.25 µg/mL",[1]; [16],96.26 ± 0.78%
same,"viability at 24 h, 12.5 µg/mL",[1]; [16],103 ± 3.44%
same,"viability at 48 h, 12.5 µg/mL",[1]; [16],92.6 ± 1.4%
same,"viability at 24 h, 25 µg/mL",[1]; [16],102 ± 1.07%
same,"viability at 48 h, 25 µg/mL",[1]; [16],91.5 ± 1.41%
same,"viability at 24 h, 50 µg/mL",[1]; [16],101 ± 2.55%
same,"viability at 48 h, 50 µg/mL",[1]; [16],88.2 ± 2.1%
same,viability at 3.1 µg/mL,"[2]; HEp-2, 24 h",105 ± 1.93%
same,viability at 6.25 µg/mL,"[2]; HEp-2, 24 h",110 ± 2.64%
same,viability at 12.5 µg/mL,"[2]; HEp-2, 24 h",113 ± 3.48%
same,viability at 25 µg/mL,"[2]; HEp-2, 24 h",109 ± 2.75%
same,viability at 50 µg/mL,"[2]; HEp-2, 24 h",106 ± 1.63%
same,viability at 3.1 µg/mL,"[2]; HEp-2, 48 h",101 ± 3.72%
same,viability at 6.25 µg/mL,"[2]; HEp-2, 48 h",110 ± 3.49%
same,viability at 12.5 µg/mL,"[2]; HEp-2, 48 h",111 ± 2.8%
same,viability at 25 µg/mL,"[2]; HEp-2, 48 h",101.6 ± 0.56%
same,viability at 50 µg/mL,"[2]; HEp-2, 48 h",69 ± 0.81%
same,MIC,[3],930 ± 0.02 µg/mL
same,MIC,[4],930 ± 0.53 µg/mL
same,MIC,[5],930 ± 0.1 µg/mL
same,MIC,[6],930 ± 0.55 µg/mL
same,"Minimum biofilm inhibition concentration (MBIC), Pseudomonas aeruginosa ATCC27853",[7]; 24 h,460 ± 0.05 µg/mL
same,minimal effective concentration,"[7]; Pseudomonas aeruginosa, ATCC27853, 24 h, read-out: Minimum biofilm inhibition concentration (MBIC), Pseudomonas aeruginosa ATCC27853",460 µg/mL
same,minimal effective concentration,[8],930 ± 0.53 µg/mL
same,minimal effective concentration,[9],930 ± 0.18 µg/mL
same,minimal effective concentration,[10],930 ± 0.03 µg/mL
same,"Qualitative antimicrobial activity, Pseudomonas aeruginosa ATCC27853",[11],-
same,"Qualitative antimicrobial activity, Enterococcus faecalis ATCC29212",[12],-
same,"Qualitative antimicrobial activity, Escherichia coli ATCC25922",[13],-
same,"Qualitative antimicrobial activity, Staphylococcus aureus ATCC25923",[14],-
"C[C@@H]1CC[C@@]2(OC1)O[C@H]1C[C@H]3[C@@H]4CC=C5C[C@@H](O[C@@H]6O[C@H](CO)[C@@H](O[C@@H]7O[C@@H](C)[C@H](O)[C@@H](O)[C@H]7O)[C@H](O)[C@H]6O[C@@H]6O[C@@H](C)[C@H](O)[C@@H](O)[C@H]6O)CC[C@]5(C)[C@H]4CC[C@]3(C)[C@H]1[C@@H]2C [dioscin, reference compound]","viability at 24 h, 3.1 µg/mL",[1]; [17],94.3 ± 2.49%
same,"viability at 48 h, 3.1 µg/mL",[1]; [17],94.2 ± 1.66%
same,"viability at 24 h, 6.25 µg/mL",[1]; [17],93 ± 3.24%
same,"viability at 48 h, 6.25 µg/mL",[1]; [17],72.6 ± 1.67%
same,"viability at 24 h, 12.5 µg/mL",[1]; [17],38.7 ± 2.55%
same,"viability at 48 h, 12.5 µg/mL",[1]; [17],37 ± 2.55%
same,"viability at 24 h, 25 µg/mL",[1]; [17],14.9 ± 2.63%
same,"viability at 48 h, 25 µg/mL",[1]; [17],8.55 ± 1.26%
same,"viability at 24 h, 50 µg/mL",[1]; [17],13.7 ± 2.06%
same,"viability at 48 h, 50 µg/mL",[1]; [17],7.14 ± 1.28%
same,IC50,[15],15.8 ± 2.19 µg/mL
same,viability at 3.1 µg/mL,"[2]; HEp-2, 24 h",97.09 ± 0.43%
same,viability at 6.25 µg/mL,"[2]; HEp-2, 24 h",76.7 ± 2.01%
same,viability at 12.5 µg/mL,"[2]; HEp-2, 24 h",58.92 ± 0.3%
same,viability at 25 µg/mL,"[2]; HEp-2, 24 h",13.9 ± 0.18%
same,viability at 50 µg/mL,"[2]; HEp-2, 24 h",11.5 ± 0.14%
same,viability at 3.1 µg/mL,"[2]; HEp-2, 48 h",95.99 ± 0.53%
same,viability at 6.25 µg/mL,"[2]; HEp-2, 48 h",62 ± 1.78%
same,viability at 12.5 µg/mL,"[2]; HEp-2, 48 h",38 ± 2.09%
same,viability at 25 µg/mL,"[2]; HEp-2, 48 h",7.49 ± 1.32%
same,viability at 50 µg/mL,"[2]; HEp-2, 48 h",7.27 ± 1.14%

# Source: paper PMC11672400, “Synthesis, Spectroscopic Characterization, Structural Analysis, and Evaluation of Anti-Tumor, Antimicrobial, and Antibiofilm Activities of Halogenoaminopyrazoles Derivatives” (Antibiotics, 2024)
